Data taken from PubChem BioAssay AID2060491 (Molecular Pharmacology Branch, DTP, NCI, 2025).

System: 857933-349-R-J2-PDC complex spheroids, viability
Test: Anticancer human tumor 857933-349-R-J2-PDC patient-derived colon adenocarcinoma cell line growth inhibition [GQUAD]
Conditions: for IC50: curve of first compound; for viability, T/C: stronger effect = lower value
Method in brief: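 Viability of tumor cells grown as complex spheroids with endothelial and stromal cells, exposed to drug combinations. Top concentration at or near clinical Cmax (else 10 microM), diluted in half-log increments.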

[1] = second compound 0.0316 µM, first compound 0.0316 µM
[2] = second compound 0.0316 µM, first compound 0.1 µM
[3] = second compound 0.0316 µM, first compound 0.316 µM
[4] = second compound 0.0316 µM, first compound 1 µM
[5] = second compound 0.0316 µM, first compound 3.16 µM
[6] = second compound 0.0316 µM, first compound 10 µM
[7] = second compound 0.1 µM, first compound 0.0316 µM
[8] = second compound 0.1 µM, first compound 0.1 µM
[9] = second compound 0.1 µM, first compound 0.316 µM
[10] = second compound 0.1 µM, first compound 1 µM
[11] = second compound 0.1 µM, first compound 3.16 µM
[12] = second compound 0.1 µM, first compound 10 µM
[13] = second compound 0.316 µM, first compound 0.0316 µM
[14] = second compound 0.316 µM, first compound 0.1 µM
[15] = second compound 0.316 µM, first compound 0.316 µM
[16] = second compound 0.316 µM, first compound 1 µM
[17] = second compound 0.316 µM, first compound 3.16 µM
[18] = second compound 0.316 µM, first compound 10 µM
[19] = second compound 1 µM, first compound 0.0316 µM
[20] = second compound 1 µM, first compound 0.1 µM
[21] = second compound 1 µM, first compound 0.316 µM
[22] = second compound 1 µM, first compound 1 µM
[23] = second compound 1 µM, first compound 3.16 µM
[24] = second compound 1 µM, first compound 10 µM
[25] = second compound 3.16 µM, first compound 0.0316 µM
[26] = second compound 3.16 µM, first compound 0.1 µM
[27] = second compound 3.16 µM, first compound 0.316 µM
[28] = second compound 3.16 µM, first compound 1 µM
[29] = second compound 3.16 µM, first compound 3.16 µM
[30] = second compound 3.16 µM, first compound 10 µM
[31] = second compound 10 µM, first compound 0.0316 µM
[32] = second compound 10 µM, first compound 0.1 µM
[33] = second compound 10 µM, first compound 0.316 µM
[34] = second compound 10 µM, first compound 1 µM
[35] = second compound 10 µM, first compound 3.16 µM
[36] = second compound 10 µM, first compound 10 µM
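Note: spheroids exposed to compounds for one week before readout.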
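Throughout, for viability, T/C: percent viability relative to vehicle DMSO wells taken as 100%.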

COc1ccc([C@@H](O)c2cc(-c3ncnc4cc(N5CCOCC5)ccc34)c(F)cc2Cl)nn1 + Cc1[nH]c2ccc(F)cc2c1-c1nc2c3cccnc3c3ncccc3c2[nH]1
IC50 (second compound 0.0316 µM): > 10 µM | IC50 (second compound 0.1 µM): 8.66 µM | IC50 (second compound 0.316 µM): > 10 µM | IC50 (second compound 1 µM): > 10 µM | IC50 (second compound 3.16 µM): > 10 µM | IC50 (second compound 10 µM): > 10 µM | viability, T/C [1]: 124% | viability, T/C [2]: 98.5% | viability, T/C [3]: 99.8% | viability, T/C [4]: 82.2% | viability, T/C [5]: 69.9% | viability, T/C [6]: 51.6% | viability, T/C [7]: 107% | viability, T/C [8]: 108% | viability, T/C [9]: 93.5% | viability, T/C [10]: 87.8% | viability, T/C [11]: 64.2% | viability, T/C [12]: 48.1% | viability, T/C [13]: 108% | viability, T/C [14]: 91.1% | viability, T/C [15]: 99.1% | viability, T/C [16]: 90.8% | viability, T/C [17]: 71.6% | viability, T/C [18]: 58.1% | viability, T/C [19]: 102% | viability, T/C [20]: 98.8% | viability, T/C [21]: 96.3% | viability, T/C [22]: 99.4% | viability, T/C [23]: 71.8% | viability, T/C [24]: 52.7% | viability, T/C [25]: 113% | viability, T/C [26]: 96.5% | viability, T/C [27]: 95.1% | viability, T/C [28]: 94% | viability, T/C [29]: 66.1% | viability, T/C [30]: 52.2% | viability, T/C [31]: 105% | viability, T/C [32]: 94.1% | viability, T/C [33]: 91.6% | viability, T/C [34]: 79.9% | viability, T/C [35]: 68.6% | viability, T/C [36]: 51.9%

CC[C@@]1(O)C(=O)OCc2c1cc1n(c2=O)Cc2cc3c(CN(C)C)c(O)ccc3nc2-1 + Cc1[nH]c2ccc(F)cc2c1-c1nc2c3cccnc3c3ncccc3c2[nH]1
IC50 (second compound 0.0316 µM): 0.153 µM | IC50 (second compound 0.1 µM): 0.13 µM | IC50 (second compound 0.316 µM): 0.144 µM | IC50 (second compound 1 µM): 0.164 µM | IC50 (second compound 3.16 µM): 0.132 µM | IC50 (second compound 10 µM): 0.192 µM | viability, T/C (second compound 0.0316 µM, first compound 0.000999 µM): 96.7% | viability, T/C (second compound 0.0316 µM, first compound 0.00316 µM): 94.6% | viability, T/C (second compound 0.0316 µM, first compound 0.00999 µM): 89.8% | viability, T/C [1]: 63.5% | viability, T/C (second compound 0.0316 µM, first compound 0.0999 µM): 60.8% | viability, T/C [3]: 39.6% | viability, T/C (second compound 0.1 µM, first compound 0.000999 µM): 91.8% | viability, T/C (second compound 0.1 µM, first compound 0.00316 µM): 99.7% | viability, T/C (second compound 0.1 µM, first compound 0.00999 µM): 90.2% | viability, T/C [7]: 67.7% | viability, T/C (second compound 0.1 µM, first compound 0.0999 µM): 56.6% | viability, T/C [9]: 39.7% | viability, T/C (second compound 0.316 µM, first compound 0.000999 µM): 102% | viability, T/C (second compound 0.316 µM, first compound 0.00316 µM): 93.6% | viability, T/C (second compound 0.316 µM, first compound 0.00999 µM): 97.6% | viability, T/C [13]: 72.6% | viability, T/C (second compound 0.316 µM, first compound 0.0999 µM): 54.9% | viability, T/C [15]: 42.8% | viability, T/C (second compound 1 µM, first compound 0.000999 µM): 103% | viability, T/C (second compound 1 µM, first compound 0.00316 µM): 89.1% | viability, T/C (second compound 1 µM, first compound 0.00999 µM): 92.8% | viability, T/C [19]: 73.9% | viability, T/C (second compound 1 µM, first compound 0.0999 µM): 60.5% | viability, T/C [21]: 36.6% | viability, T/C (second compound 3.16 µM, first compound 0.000999 µM): 97.8% | viability, T/C (second compound 3.16 µM, first compound 0.00316 µM): 95.7% | viability, T/C (second compound 3.16 µM, first compound 0.00999 µM): 88.8% | viability, T/C [25]: 90.8% | viability, T/C (second compound 3.16 µM, first compound 0.0999 µM): 53.4% | viability, T/C [27]: 39.2% | viability, T/C (second compound 10 µM, first compound 0.000999 µM): 105% | viability, T/C (second compound 10 µM, first compound 0.00316 µM): 86.2% | viability, T/C (second compound 10 µM, first compound 0.00999 µM): 89.4% | viability, T/C [31]: 73.7% | viability, T/C (second compound 10 µM, first compound 0.0999 µM): 62.6% | viability, T/C [33]: 40.4%

O=C(c1cc(Cc2n[nH]c(=O)c3ccccc23)ccc1F)N1CCN(C(=O)C2CC2)CC1 + CN(C)c1ccc(Nc2c3ccc(NC(=O)CCN4CCCC4)cc3nc3cc(NC(=O)CCN4CCCC4)ccc23)cc1
IC50 (second compound 0.0316 µM): > 10 µM | IC50 (second compound 0.1 µM): > 10 µM | IC50 (second compound 0.316 µM): > 10 µM | IC50 (second compound 1 µM): > 10 µM | IC50 (second compound 3.16 µM): > 10 µM | IC50 (second compound 10 µM): > 10 µM | viability, T/C [1]: 111% | viability, T/C [2]: 99.1% | viability, T/C [3]: 108% | viability, T/C [4]: 98.8% | viability, T/C [5]: 106% | viability, T/C [6]: 107% | viability, T/C [7]: 109% | viability, T/C [8]: 104% | viability, T/C [9]: 100% | viability, T/C [10]: 104% | viability, T/C [11]: 99.8% | viability, T/C [12]: 108% | viability, T/C [13]: 103% | viability, T/C [14]: 99.3% | viability, T/C [15]: 103% | viability, T/C [16]: 98.4% | viability, T/C [17]: 109% | viability, T/C [18]: 107% | viability, T/C [19]: 96% | viability, T/C [20]: 95.6% | viability, T/C [21]: 104% | viability, T/C [22]: 93.7% | viability, T/C [23]: 109% | viability, T/C [24]: 98.5% | viability, T/C [25]: 91.2% | viability, T/C [26]: 82% | viability, T/C [27]: 91.2% | viability, T/C [28]: 84% | viability, T/C [29]: 93.4% | viability, T/C [30]: 91.8% | viability, T/C [31]: 73.1% | viability, T/C [32]: 76.3% | viability, T/C [33]: 75.4% | viability, T/C [34]: 73.2% | viability, T/C [35]: 80.5% | viability, T/C [36]: 81.5%
